# Assay results taken from a melting point compilation (Tetko et al.; mined from patent text by program, amines drawn as free bases though some values may be those of a salt).
row,Structure (SMILES),melting point
1,O=[N+]([O-])c1cccnc1NCC(O)CO (configuration not stated),95.5 to 98 °C
2,COC(=O)[C@H]1CN(c2ccc3c(c2)sc(=O)n3C(C)C)C(=O)O1,161 to 162 °C
3,O=C(OC1c2nccnc2C(=O)N1c1ccc2ccc(Cl)cc2n1)N1CCNCC1 (configuration not stated),242 °C
4,COc1ccc(N=Cc2cc(OC)c(OC)c(OC)c2)cc1,78 to 86 °C
5,Nc1sc2c(c1Cc1cccs1)CCN(Cc1ccccc1)C2,122 to 123 °C
6,BrC12CC3CC(CC(C3)C1=C1C3CC4CC(C3)CC1C4)C2,130 to 132 °C
7,O=C1NC(=O)C(Cc2ccc(OCCON=Cc3ccc4ccccc4n3)cc2)S1 (configuration not stated),164 to 166 °C
8,O=[N+]([O-])c1ccc(Oc2c(Cl)cc(C(F)(F)F)cc2Cl)cc1SCc1ccccc1,207 °C
9,COc1cc2cc(C(=O)O)[nH]c2c2c1OCCC2=O,312 °C
10,S=C(Nc1ccc(Cl)c(Cl)c1)Nc1ncccc1OCc1ccccc1,144 to 146 °C
11,COc1ccc(N2C(=O)C3=C(SCCO3)C2O)nn1 (configuration not stated),165 °C
12,NS(=O)(=O)c1ccc(-n2nc(C(F)F)cc2-c2nc3ccc(Cl)cc3s2)cc1,242 to 244 °C
13,O=C(c1ccccc1)c1ccc(OCCCCCCBr)cc1,47 to 49 °C
14,O=C(O)CNC(=O)c1ccc(C(=O)NS(=O)(=O)c2ccccc2)cn1,190 to 191 °C
15,CCC(CC)Nc1cc(C)nc(Sc2c(C)cc(C)cc2C)c1C,108 to 110 °C
16,CC(NC(Nc1ccc2c(c1)OCO2)=C(C#N)S(=O)(=O)c1ccc(Cl)cc1)C(C)(C)C (configuration not stated),160 to 162 °C
17,CC(=O)OCC1OC(OS(=O)(=S)c2ccccc2)C(OC(C)=O)C(OC(C)=O)C1OC(C)=O (configuration not stated),53 to 54 °C
18,COCOc1cc(C=O)ccc1OCc1nc(-c2ccco2)oc1C,102 to 103 °C
19,CC(C)(C)Cc1c(CC(C)(C)C(=O)O)n(Cc2ccc(Cl)cc2)c2ccc(OCc3ccc4ccccc4n3)cc12,172 °C
20,O=C1c2ccccc2C(=O)N1C[C@@H]1CCC=CO1,87 to 88 °C
21,Cc1ccc(C(O[Si](C)(C)C(C)(C)C)C(=O)NO)cc1 (configuration not stated),109 to 111 °C

row,Structure (SMILES),melting point
1,CCOC(=O)COc1ccc(CCNC(=O)C[C@H]2O[C@H](c3cccc(OC)c3OC)c3cc(Cl)ccc3N(CC(C)(C)CO)C2=O)cc1,142 to 145 °C
2,CNC(=NS(=O)(=O)c1ccc(C)cc1)NCCSCc1[nH]cnc1C,138 °C
3,C=C(CC(O)C(=O)OCC)CC(NC=O)(C(=O)OCC)C(=O)OCC (configuration not stated),68 °C
4,N#CC(C#N)=CN(N=C(C#N)C#N)c1cccc(Cl)c1,113 to 115 °C
5,CCCC1(C)OC(=O)C(c2ccc(F)c(F)c2)=C1c1ccc(S(C)(=O)=O)cc1 (configuration not stated),89 to 90 °C
6,O=c1[nH]c(N[N+](=O)[O-])ncc1Cc1ccncc1,228 to 229 °C
7,N[C@H]1C=C(C(=O)O)OC1,193 to 195 °C
8,O=C(O)c1ccc(C(F)(F)F)c(N2CCOCC2)n1,116 to 117 °C
9,Cc1c(-c2ccncc2)sc(-c2ccncc2)c1C(C)O (configuration not stated),155 to 157 °C
10,Cc1noc([C@@H](Cc2ccccc2)NC(=O)[C@@H](Cc2ccc3ccccc3c2)NC(=O)c2cccc(CNC(=O)OC(C)(C)C)c2)n1,176 to 178 °C
11,NC(=S)NCc1ccco1,80 to 91 °C
12,CC[C@@]12C[C@H](N)[C@](O)(c3ccccc3)C[C@H]1CCc1cc(O)ccc12,209 to 210 °C
13,COc1ccc2cnc(Nc3ccc(N4CCNCC4)c(F)c3)nc2c1C1CCCC1,228 to 229 °C
14,Cc1cc(C)c(O)c(Cc2cc(C)cc(C)c2O)c1,125 to 126 °C
15,CCNC(=O)ON(C(=O)CC)C(=O)NCC,104 to 106 °C
16,Oc1cc2c(cc1CCCCc1ccccc1)OC(CCc1ccccc1)C2 (configuration not stated),50 to 53 °C
17,CN(C(=O)C1(CCCCCCCCCCCCC2(C(=O)O)CC2)CC1)S(C)(=O)=O,62.9 to 63.7 °C
18,Cc1cccc(C=CCC(CCC(=O)O)(C(=O)C=Cc2ccc(Cl)cc2)c2ccccc2)c1 (configuration not stated),135 to 144 °C
19,CN(C)C(=O)CCCCCCCCCCCCO,69 to 71 °C
20,O=[N+]([O-])c1cc([N+](=O)[O-])c(Nc2c(Br)cc(Cl)c3ccccc23)c(C(F)(F)F)c1,207 to 209 °C
21,COC(=O)C(C)(C)CC(=O)c1ccc(-n2ccnc2)cc1,89 to 93 °C

row,Structure (SMILES),melting point
1,CN1C(=O)C2C3C=CC(C3)C2(c2ccc(N)cc2)C1=O (configuration not stated),129 to 131 °C
2,CN(C(=S)Nc1ccc(NNC=O)cc1)c1ccccc1,137 to 139 °C
3,Cn1cnc2c1ccn1c(=O)c(-c3ccc(OCc4ccccc4)cc3)cc(C(=O)O)c21,227 to 229 °C
4,CN(C(=O)Nc1cccc(C(F)(F)F)c1)S(C)(=O)=O,72 °C
5,O=C(Nc1cccc(S(=O)(=O)NC2CC2)c1)c1cnn2c(C(F)(F)F)cc(-c3ccc(Cl)c(Cl)c3)nc12,248 °C
6,O=C(Nc1ccc(N2CCN(C(=O)C(F)(F)F)CC2)cc1)C(F)(F)F,193 to 194 °C
7,CC(C)n1nc(-c2nc(O)cnc2-c2ccccc2)ccc1=O,198 to 200 °C
8,COc1ccc2c(c1)C=Cn1c(nnc1OC)C2,185 to 186 °C
9,Cc1nc(NC(=O)c2ccc(S(C)(=O)=O)cc2)sc1C(=O)NCc1ccccc1,262 to 265 °C
10,CCCCc1cn(Cc2ccc(-c3ccccc3C(=O)O)cc2)c2c(c1=O)CCCC2,260 °C
11,COC(=O)C(C)(C)C(=O)c1ccc(-n2cncn2)cc1,84 to 85 °C
12,CCN(CC)CCNc1nc2cccnc2n(-c2ccc(OC)cc2)c1=O,167 to 168 °C
13,c1ccc(N=C2CCCCN2)c(CN2CCOCC2)c1,108 to 110 °C
14,FC(F)(F)c1cc(-c2ccc(Cl)c(Cl)c2)nc2c(-c3cccnc3)cnn12,224 °C
15,Brc1ccc2c(Br)c3cc(Br)ccc3c(Br)c2c1,293 to 296 °C
16,COc1ccc(C(O)CN2CCN(C(c3ccccc3)c3ccccc3)CC2)cc1OC (configuration not stated),85 °C
17,O=C1C(=Cc2ccc(F)cc2)C2C=CC1CC2 (configuration not stated),85 to 86 °C
18,CC(=O)NC[C@H]1CN(c2ccc(-n3cnnc3)c(F)c2)C(=O)O1,204 to 206 °C
19,Cc1cc(C2=NNC(C(N)=O)Cc3cc4c(cc32)OCO4)ccc1[N+](=O)[O-] (configuration not stated),246 to 249 °C
20,Cc1cc(Cc2cc(C)c(N)c(C)c2)cc(C)c1N,119 to 120 °C
21,CN(CCCNC(=O)NCCCCOc1cccc(CN2CCCCC2)c1)CCN(Cc1ccc(F)cc1)c1ccccn1,115 °C

# Now from value to compound:
row,melting point,Structure (SMILES)
1,101 to 103 °C,NC(=O)N(O)Cc1sccc1Sc1ccc(F)cc1
2,50 °C,CCCCCCNC(=O)Oc1ccc2c(c1)CCCN2C
3,177 to 178 °C,Nc1cccc(C(=O)Nc2ccc(NNC=O)cc2)c1
4,> 250 °C,Cn1c(=O)n(C(N)=O)c2ccccc21
5,205 to 206 °C,COc1ccc(Br)c(OC)c1-c1ccc(C[C@H](NC(=O)c2c(Cl)cccc2Cl)C(=O)O)cc1
6,126 to 128 °C,COc1cc(C)c(C(=O)c2c(Cl)cccc2Cl)cc1OC(F)F
7,71 °C,COc1cccc2c1CC(CC=O)C2=O (racemic)
8,> 280 °C,C=CCc1cccc(-c2nc3n(C4CCCC4)[nH]c(CC)c-3c(=O)n2)c1O
9,84 to 85 °C,CCOC(=O)C1CCN(c2nc(COc3ccc(CO)cc3OC)c(C)s2)CC1
10,178 to 179 °C,O=C(O)C1CC=C(c2c(-c3ccccc3)[nH]c3ccccc23)CC1 (configuration not stated)
11,193 to 194 °C,CCc1ccnc(C(=O)c2[nH]c3cc(Cl)ccc3c2CC(=O)O)c1F
12,165 °C,CN1CCOc2ccc(N)cc2C1=O
13,254 to 256 °C,COc1ccc(Cn2c(=O)[nH]c3ccc([N+](=O)[O-])cc3c2=O)cc1
14,268 °C,CC(=O)CC1NC(=O)c2sccc2-n2cccc21 (configuration not stated)
15,120 to 121 °C,COc1ccc2c(Cl)c(C(=O)Cl)sc2c1
16,148 to 151 °C,CC(=O)Oc1cc(C(C)C)ccc1C1(OC(C)=O)C(=O)c2cccc(N)c2C1=O (configuration not stated)
17,220 to 222 °C,COCc1c(CO)ncc2[nH]c3cccc(Cc4ccc(Cl)cc4)c3c12
18,266 to 267 °C,CCOC(=O)c1c2n(c3ccc(Cl)c(Cl)c3c1=O)CCS2
19,175 to 177 °C,COC(=O)CN(CCNC(=O)OC(C)(C)C)C(=O)Cc1cc2c(C)ccnc2[nH]c1=O
20,113 to 115 °C,CCN1c2ncccc2C(=O)N(C)c2ccc(-c3c[nH]nc3C)nc21

row,melting point,Structure (SMILES)
1,125 to 129 °C,CCOC(=O)c1cccc(NC(=O)C(COS(C)(=O)=O)NS(=O)(=O)c2ccc(Cl)cc2)c1 (racemic)
2,258 to 260 °C,O=C(O)c1cc(=O)c2cc(O)c(=O)ccc2[nH]1
3,95 to 99 °C,CCOC(=O)c1cc2c(C)noc2nc1C(=O)OCC
4,245 to 246 °C,COc1ccc(C2C3=C(COC3=O)Nc3onc(-c4ccc(Cl)cc4)c32)cc1O (configuration not stated)
5,141 to 143 °C,C=CCc1cc(C(=O)c2ccnn2C)c(Cl)c(Cl)c1O
6,116 to 118 °C,CC(C)Oc1ccc(C(=O)O)c(C(=O)O)c1
7,248 °C,NS(=O)(=O)c1cc(C(=O)O)cc([N+](=O)[O-])c1Oc1ccc(Cl)cc1
8,116 to 117 °C,COCN1C(C)=C(C(=O)OCc2ccccc2)C(c2cccc(Cl)c2Cl)C(C(=O)OCc2ccccc2)=C1C
9,361 to 363 °C,O=c1c2c(Cl)cc(Cl)cc2[nH]c2c(O)nn(-c3ccccc3)c(=O)c12
10,301 °C,COC(=O)c1ccc(C(=O)Nc2nnc(-c3cc(Cl)cc(Cl)c3O)s2)nc1
11,138 to 140 °C,CC(c1ccc(Br)cc1)N(O)C(N)=O (configuration not stated)
12,124 to 125 °C,CCOC(=O)c1cnc2c(c1)N(Cc1cc(F)ccc1F)CCN2
13,120 to 122 °C,CC1C(=O)Oc2c1cccc2S(=O)c1ccccc1Cl (configuration not stated)
14,256 to 258 °C,O=c1[nH]c2cccnc2n1-c1ccc2c(c1)OCO2
15,100 to 102 °C,COC(=O)c1cc(Cl)c(NC(C)=O)cc1OC1C=CCCC1 (configuration not stated)
16,209 to 210 °C,CC1(c2ccc(N)cc2)C(=O)c2c(Cl)cc(Cl)cc2N(Cc2ccccc2)C1=O (configuration not stated)
17,320 °C,NC(=O)c1c(N)oc2ccc(Cl)cc2c1=O
18,111 to 113 °C,CCOC(=O)c1[nH]c(C)c(C)c1O
19,140 to 142 °C,CCOC(=O)c1c(N)[nH]c2cccc(Cl)c12
